Test results taken from PubChem BioAssay (NCI).
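Abbreviation: GI50, concentration required for 50% inhibition of growth. TGI marks complete inhibition of growth.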

Experiments:
Test in all cases: NCI-60 cell line screen, 384-well format
K-562 leukemia = tested on: K-562 leukemia
SK-MEL-2 melanoma = tested on: SK-MEL-2 melanoma
SN12C renal = tested on: SN12C renal
SK-MEL-5 melanoma = tested on: SK-MEL-5 melanoma
786-0 renal = tested on: 786-0 renal
HOP-92 NSCLC = tested on: HOP-92 NSCLC
SF-539 CNS = tested on: SF-539 CNS
COLO 205 colon = tested on: COLO 205 colon
LOX IMVI melanoma = tested on: LOX IMVI melanoma
HCT-15 colon = tested on: HCT-15 colon
HCT-116 colon = tested on: HCT-116 colon
KM12 colon = tested on: KM12 colon
MDA-MB-231 breast = tested on: MDA-MB-231 breast
SF-295 CNS = tested on: SF-295 CNS
NCI-H322M lung = tested on: NCI-H322M lung
CAKI-1 renal = tested on: CAKI-1 renal
CCRF-CEM leukemia = tested on: CCRF-CEM leukemia
NCI-H522 lung = tested on: NCI-H522 lung
DU-145 prostate = tested on: DU-145 prostate
MOLT-4 leukemia = tested on: MOLT-4 leukemia
A549 NSCLC = tested on: A549 NSCLC
SW-620 colon = tested on: SW-620 colon
SNB-19 CNS = tested on: SNB-19 CNS
RXF 393 renal = tested on: RXF 393 renal
UO-31 renal = tested on: UO-31 renal
T-47D breast = tested on: T-47D breast
U251 glioblastoma = tested on: U251 glioblastoma
OVCAR-5 ovarian = tested on: OVCAR-5 ovarian
PC-3 prostate = tested on: PC-3 prostate
UACC-62 melanoma = tested on: UACC-62 melanoma
OVCAR-4 ovarian = tested on: OVCAR-4 ovarian
NCI-H23 lung = tested on: NCI-H23 lung
RPMI-8226 leukemia = tested on: RPMI-8226 leukemia
TK-10 renal = tested on: TK-10 renal
NCI-H460 NSCLC = tested on: NCI-H460 NSCLC
NCI-H226 lung = tested on: NCI-H226 lung
IGROV1 ovarian = tested on: IGROV1 ovarian
UACC-257 melanoma = tested on: UACC-257 melanoma
OVCAR-3 ovarian = tested on: OVCAR-3 ovarian
A498 renal = tested on: A498 renal
MDA-MB-435 melanoma = tested on: MDA-MB-435 melanoma
M14 melanoma = tested on: M14 melanoma
SK-OV-3 ovarian = tested on: SK-OV-3 ovarian
BT-549 breast = tested on: BT-549 breast
SF-268 CNS = tested on: SF-268 CNS
MALME-3M melanoma = tested on: MALME-3M melanoma
MCF7 breast = tested on: MCF7 breast
SR leukemia = tested on: SR leukemia
HS 578T breast = tested on: HS 578T breast
NCI/ADR-RES ovarian = tested on: NCI/ADR-RES ovarian
SNB-75 CNS = tested on: SNB-75 CNS
HCC-2998 colon = tested on: HCC-2998 colon
EKVX NSCLC = tested on: EKVX NSCLC
SK-MEL-28 melanoma = tested on: SK-MEL-28 melanoma
HL-60(TB) leukemia = tested on: HL-60(TB) leukemia
HT29 colon = tested on: HT29 colon
MDA-MB-468 breast = tested on: MDA-MB-468 breast
ACHN renal = tested on: ACHN renal
HOP-62 NSCLC = tested on: HOP-62 NSCLC

SMILES: C[C@@H](N)C1CCC(C(=O)Nc2ccncc2)CC1 (stereo partly drawn)
- GI50 (K-562 leukemia): 39.9 µM
- TGI (K-562 leukemia): > 100 µM
- GI50 (SK-MEL-2 melanoma): > 100 µM
- TGI (SK-MEL-2 melanoma): > 100 µM
- GI50 (SN12C renal): > 100 µM
- TGI (SN12C renal): > 100 µM
- GI50 (SK-MEL-5 melanoma): > 100 µM
- TGI (SK-MEL-5 melanoma): > 100 µM
- GI50 ([…]-0 renal): > 100 µM
- TGI (786-0 renal): > 100 µM
- GI50 (HOP-92 NSCLC): 75.8 µM
- TGI (HOP-92 NSCLC): > 100 µM
- GI50 (SF-539 CNS): > 100 µM
- TGI (SF-539 CNS): > 100 µM
- GI50 (COLO 205 colon): > 100 µM
- TGI (COLO 205 colon): > 100 µM
- GI50 (LOX IMVI melanoma): > 100 µM
- TGI (LOX IMVI melanoma): > 100 µM
- GI50 (HCT-15 colon): > 100 µM
- TGI (HCT-15 colon): > 100 µM
- GI50 (HCT-116 colon): > 100 µM
- TGI (HCT-116 colon): > 100 µM
- GI50 (KM12 colon): > 100 µM
- TGI (KM12 colon): > 100 µM
- GI50 (MDA-MB-231 breast): > 100 µM
- TGI (MDA-MB-231 breast): > 100 µM
- GI50 (SF-295 CNS): 77.8 µM
- TGI (SF-295 CNS): > 100 µM
- GI50 (NCI-H322M lung): > 100 µM
- TGI (NCI-H322M lung): > 100 µM
- GI50 (CAKI-1 renal): > 100 µM
- TGI (CAKI-1 renal): > 100 µM
- GI50 (CCRF-CEM leukemia): > 100 µM
- TGI (CCRF-CEM leukemia): > 100 µM
- GI50 (NCI-H522 lung): > 100 µM
- TGI (NCI-H522 lung): > 100 µM
- GI50 (DU-145 prostate): > 100 µM
- TGI (DU-145 prostate): > 100 µM
- GI50 (MOLT-4 leukemia): 50.7 µM
- TGI (MOLT-4 leukemia): > 100 µM
- GI50 (A549 NSCLC): > 100 µM
- TGI (A549 NSCLC): > 100 µM
- GI50 (SW-620 colon): 92 µM
- TGI (SW-620 colon): > 100 µM
- GI50 (SNB-19 CNS): > 100 µM
- TGI (SNB-19 CNS): > 100 µM
- GI50 (RXF 393 renal): 40.9 µM
- TGI (RXF 393 renal): > 100 µM
- GI50 (UO-31 renal): > 100 µM
- TGI (UO-31 renal): > 100 µM
- GI50 (T-47D breast): 99.3 µM
- TGI (T-47D breast): > 100 µM
- GI50 (U251 glioblastoma): 87.8 µM
- TGI (U251 glioblastoma): > 100 µM
- GI50 (OVCAR-5 ovarian): > 100 µM
- TGI (OVCAR-5 ovarian): > 100 µM
- GI50 (PC-3 prostate): > 100 µM
- TGI (PC-3 prostate): > 100 µM
- GI50 (UACC-62 melanoma): > 100 µM
- TGI (UACC-62 melanoma): > 100 µM
- GI50 (OVCAR-4 ovarian): > 100 µM
- TGI (OVCAR-4 ovarian): > 100 µM
- GI50 (NCI-H23 lung): > 100 µM
- TGI (NCI-H23 lung): > 100 µM
- GI50 (RPMI-8226 leukemia): 88.4 µM
- TGI (RPMI-8226 leukemia): > 100 µM
- GI50 (TK-10 renal): > 100 µM
- TGI (TK-10 renal): > 100 µM
- GI50 (NCI-H460 NSCLC): > 100 µM
- TGI (NCI-H460 NSCLC): > 100 µM
- GI50 (NCI-H226 lung): > 100 µM
- TGI (NCI-H226 lung): > 100 µM
- GI50 (IGROV1 ovarian): 80 µM
- TGI (IGROV1 ovarian): > 100 µM
- GI50 (UACC-257 melanoma): > 100 µM
- TGI (UACC-257 melanoma): > 100 µM
- GI50 (OVCAR-3 ovarian): > 100 µM
- TGI (OVCAR-3 ovarian): > 100 µM
- GI50 (A498 renal): > 100 µM
- TGI (A498 renal): > 100 µM
- GI50 (MDA-MB-435 melanoma): > 100 µM
- TGI (MDA-MB-435 melanoma): > 100 µM
- GI50 (M14 melanoma): > 100 µM
- TGI (M14 melanoma): > 100 µM
- GI50 (SK-OV-3 ovarian): > 100 µM
- TGI (SK-OV-3 ovarian): > 100 µM
- GI50 (BT-549 breast): 25.9 µM
- TGI (BT-549 breast): > 100 µM
- GI50 (SF-268 CNS): 69.7 µM
- TGI (SF-268 CNS): > 100 µM
- GI50 (MALME-3M melanoma): > 100 µM
- TGI (MALME-3M melanoma): > 100 µM
- GI50 (MCF7 breast): 60.3 µM
- TGI (MCF7 breast): > 100 µM
- GI50 (SR leukemia): 7.94 µM
- TGI (SR leukemia): 21.9 µM
- GI50 (HS 578T breast): 38.5 µM
- TGI (HS 578T breast): > 100 µM
- GI50 (NCI/ADR-RES ovarian): > 100 µM
- TGI (NCI/ADR-RES ovarian): > 100 µM
- GI50 (SNB-75 CNS): 55.9 µM
- TGI (SNB-75 CNS): > 100 µM
- GI50 (HCC-2998 colon): 85.3 µM
- TGI (HCC-2998 colon): > 100 µM
- GI50 (EKVX NSCLC): > 100 µM
- TGI (EKVX NSCLC): > 100 µM
- GI50 (SK-MEL-28 melanoma): > 100 µM
- TGI (SK-MEL-28 melanoma): > 100 µM
- GI50 (HL-60(TB) leukemia): 64 µM
- TGI (HL-60(TB) leukemia): > 100 µM
- GI50 (HT29 colon): 68.4 µM
- TGI (HT29 colon): > 100 µM
- GI50 (MDA-MB-468 breast): 31 µM
- TGI (MDA-MB-468 breast): > 100 µM
- GI50 (ACHN renal): > 100 µM
- TGI (ACHN renal): > 100 µM
- GI50 (HOP-62 NSCLC): 77.4 µM
- TGI (HOP-62 NSCLC): > 100 µM
